Results as given in patent US9624477B2 (priority 2004, dated 2017).

System: Pi-omega3Des
Type: cell-based, Phytophthora infestans
Settings: FIG. 9; for phospholipid converted by ω-3-desaturase: desaturation products also found in the neutral lipids; for desaturation of phospholipid-bound fatty acid (sn1 or sn2 position): fatty acids bound in phospholipids

| Compound | phospholipid converted by ω-3-desaturase | desaturation of phospholipid-bound fatty acid (sn1 or sn2 position) |
| --- | --- | --- |
| phosphatidylcholine | converts | – |
| phosphatidylethanolamine | converts | – |
| CCCCC/C=C\C/C=C\C/C=C\C/C=C\CCCC(=O)O [arachidonic acid, reference compound] | – | desaturation of phospholipid-bound arachidonic acid to EPA |
| phosphatidylinositol | converts | – |
| CCCCC/C=C\C/C=C\C/C=C\CCCCCCC(=O)O [C20:3 ω-6-fatty acid, dihomo-γ-linolenic acid, reference compound] | – | does not differentiate between fatty acids bound at the sn1 or sn2 position |
